Assay results: patent US20170202973A1 (GENENTECH, INC., priority 2009, published 2017)
Like-named read-outs stand apart in the source and are kept apart here.

Experiments:
[1] = cited from earlier work
[2] = system: HER2-positive metastatic breast cancer; details: for Patients Censored, % / Patients Censored, number / Patients Progressed, % / Patients Progressed, number: PFS analysis; for CR / Clinical Benefit Rate / Missing tumor response / Objective Response Rate, % / PD / PR / UE: N = 110, updated analysis
Method: The analysis of objective response rate was conducted with patient data collected through approximately 26 weeks after the last patient is enrolled in the study. This study enrolled patients with HER2-positive MBC. […] Patients will be required to have HER2-positive status, as evidenced by either 3+ HER2 protein overexpression determined by immunohistochemistry (IHC) or HER2 gene amplification determined by FISH.
Efficacy Assessments: Tumor responses were categorized as complete response (CR), partial response (PR), stable disease (SD), or progressive disease (PD) according to the Response Evaluation Criteria for Solid Tumors (RECIST). Tumor assessments (CT and/or magnetic resonance imaging [MRI] scans) were performed approximately every 6 weeks irrespective of dose delays, interruptions, or reductions. Bone and brain scans (either CT or Mill) were performed at baseline and if clinically indicated during the study. Patient management decisions were made based on tumor assessments performed by investigators. The primary study endpoints related to response were determined by an independent radiologic review of patient scans, with assessments based on investigator reporting being secondary. If each non-target lesion cannot be assessed at a follow-up tumor assessment timepoint, patients may still be considered evaluable for timepoint response as long as all target lesions are measured. Patients with non-target lesions that were not assessed at a timepoint were assessed as having a partial response, stable disease, or progressive disease. All lesions, target and non-target, were assessed before a response was considered confirmed. To reduce the frequency of unevaluable non-target lesions, bone lesions visible on baseline CT scan as non-target lesion(s) for follow-up, were compared with bone lesions identified on the baseline bone scan where possible if lesions are not visible on both modalities or as easily and reproducibly assessed.
Efficacy Assessments: An assessment of the objective response rate, the primary objective of this trial, was based on the RECIST and confirmed by independent review of baseline and follow-up assessments obtained every 6 weeks. All known sites of disease should be reassessed at each timepoint whenever possible. Because bone involvement is a common finding in patients with MBC, a bone scan at baseline may be conducted. In addition, patients with non-target lesions that were not assessed at a timepoint were assessed as having a partial response, stable disease, or progressive disease. All lesions, target and non-target (including bone lesions), were assessed before a complete response can be considered confirmed.
Efficacy Outcome Measures: The primary efficacy outcome measure is objective response (defined as a complete or partial response determined on two consecutive occasions 4 weeks apart), as assessed through independent radiologic review using RECIST. The secondary efficacy outcome measures are as follows: Duration of objective response, as assessed through independent radiologic review using RECIST; PFS, as assessed through independent radiologic review using RECIST; CBR based on independent radiologic review using RECIST; Objective response based on investigator assessments using RECIST; Duration of objective response based on investigator assessments using RECIST; PFS based on investigator assessments using RECIST; and CBR based on investigator assessments using RECIST.
The analysis of objective response rate was conducted with patient data collected through approximately 26 weeks after the last patient was enrolled in the study. In addition, the final analysis of safety and all secondary and exploratory endpoints will be updated with sufficient data when available (estimated to be approximately 10 months after the last patient is enrolled in the study). After the final analysis, the study was closed. […] This study enrolled patients with HER2-positive MBC.

[3] = Investigator, N = 110, initial analysis
[4] = Patients with HER2+ retrospectively confirmed, n = 76, INV, initial analysis
[5] = Patients with HER2+ retrospectively confirmed, n = 76, IRF, initial analysis
[6] = Patients with HER2+ retrospectively confirmed, n = 80, INV, updated analysis
[7] = Patients with HER2+ retrospectively confirmed, n = 80, IRF, updated analysis
[8] = Patients with HER2 normal, n = 15, INV, initial analysis
[9] = Patients with HER2 normal, n = 15, IRF, initial analysis
[10] = of 110 treated, 70 discontinued, data cutoff

COc1cc2cc(c1Cl)N(C)C(=O)C[C@H](OC(=O)[C@H](C)N(C)C(C)=O)[C@]1(C)O[C@H]1[C@H](C)[C@@H]1C[C@@](O)(NC(=O)O1)[C@H](OC)/C=C/C=C(\C)C2 [maytansine]
dose-limiting toxicity (DLT) ([1]; approximately 800 patients, 2.0 mg/m^2 every 3 weeks, single dose or 3 consecutive days): gastrointestinal | activity in the clinic ([1]; at doses that could be safely delivered): modest

trastuzumab-MCC-DM1 [T-DM1]
Patients Censored, % ([2]; INV, all treated patients): 45.5% | Patients Censored, number ([2]; INV, all treated patients): 50 patients | Patients Progressed, % ([2]; INV, all treated patients): 54.5% | Patients Progressed, number ([2]; INV, all treated patients): 60 patients | PFS (months) 25-75% ([2]; INV, all treated patients): 2.8-11.1 months | Missing tumor response, % ([2]; IRF, N = 110, initial analysis): (0.9%) | PD, % ([2]; IRF, N = 110, initial analysis): (18.2%) | PR, % ([2]; IRF, N = 110, initial analysis): (32.7%) | UE, % ([2]; IRF, N = 110, initial analysis): (1.8%) | CR ([2]; IRF): 0% | Clinical Benefit Rate ([2]; IRF): 48.2% | Missing tumor response ([2]; IRF): 0.9% | Objective Response Rate, % ([2]; IRF): 34.5% | PD ([2]; IRF): 18.2% | PR ([2]; IRF): 34.5% | UE ([2]; IRF): 1.8% | Patients Censored, % ([2]; IRF, all treated patients): 54.5% | Patients Censored, number ([2]; IRF, all treated patients): 60 patients | Patients Progressed, % ([2]; IRF, all treated patients): 45.5% | Patients Progressed, number ([2]; IRF, all treated patients): 50 patients | PFS (months) 25-75% ([2]; IRF, all treated patients): 2.6-9.7 months | PFS (months) median ([2]; IRF, all treated patients, initial analysis): 7.3 months | median PFS ([2]; IRF, updated analysis, all treated patients, 95% CI (4.2-8.4)): 6.9 | CR, % [2, 3]: (1.8%) | Missing tumor response, % [2, 3]: (2.7%) | PD, % [2, 3]: (13.6%) | PR, % [2, 3]: (28.2%) | UE, % [2, 3]: (0.9%) | CR ([2]; Investigator): 4.5% | Clinical Benefit Rate ([2]; Investigator): 46.4% | Missing tumor response ([2]; Investigator): 0.9% | Objective Response Rate, % ([2]; Investigator): 32.7% | PD ([2]; Investigator): 14.5% | PR ([2]; Investigator): 28.2% | UE ([2]; Investigator): 0.9% | Clinical benefit rate, % [2, 4]: 47.4% | ORR, % [2, 4]: 36.8% | Clinical benefit rate, % [2, 5]: 52.6% | ORR, % [2, 5]: 39.5% | Clinical benefit rate, % [2, 6]: (53.8%) | ORR, % [2, 6]: (40.0%) | Clinical benefit rate, % [2, 7]: (55.0%) | ORR, % [2, 7]: (41.3%) | Clinical benefit rate, % [2, 8]: 20.0% | ORR, % [2, 8]: 13.3% | Clinical benefit rate, % [2, 9]: 26.7% | ORR, % [2, 9]: 20.0% | patients that discontinued treatment with progressive disease, % [2, 10]: 52.7% | patients that discontinued treatment with progressive disease, number [2, 10]: 58 patients
